This is an account of results in ChEMBL document CHEMBL5120770, “Sarubicinols A-C, Cytotoxic Benzoxazoles from a Streptomyces” (J Nat Prod, 2022).

As a reminder, the IC50 is the concentration needed to halve the response being measured.

Assay type in all cases: functional, cell-based
For assay [1], the system named is HepG2. Nature of the assay: Cytotoxicity against human HepG2 cells assessed as cell growth inhibition incubated for 72 hrs by CCK8 assay. As to conditions: HepG2, 72 h. (In general: Formazan colour is commonly taken as a measure of viable cells.)
In assay [2] the test system is HCT-116. The assay can be described thus: Cytotoxicity against human HCT-116 cells assessed as cell growth inhibition incubated for 72 hrs by CCK8 assay. Conditions: HCT-116, 72 h.
Assay [3] relates to 4T1. The assay can be described thus: Cytotoxicity against mouse 4T1 cells assessed as cell growth inhibition incubated for 72 hrs by CCK8 assay. As to conditions: 4T1, 72 h.
In assay [4] the test system is A549. The assay can be described thus: Cytotoxicity against human A549 cells assessed as cell growth inhibition incubated for 72 hrs by CCK8 assay. As to conditions: A549, 72 h.

For the compound `CC(=O)c1cccc2c1C(=O)C(N)=C(C(N)=O)C2=O`, the IC50 was 6.3 µM in assay [1], 14.8 µM in assay [2], 7.6 µM in assay [3] and 13.5 µM in assay [4].
`C[C@H]1O[C@@H]2C[C@@H](O)[C@@]1(O)c1c2c(O)c(C(N)=O)c2nc([C@@H](O)[C@@H](O)CO)oc12`: the IC50 in assay [1] came to 5.6 µM; in assay [2] it was 4.4 µM; in assay [3], 4.3 µM; in assay [4] it was 4.8 µM.
Consider `CC(O)c1cccc2c1C(=O)C(N)=C(C(N)=O)C2=O` (stereo unspecified), for which the IC50 came to 1.9 µM in assay [1], 2.1 µM in assay [2], 1.3 µM in assay [3] and 0.9 µM in assay [4].
With `NC(=O)C1=C(N)C(=O)c2c(O)cccc2C1=O`, the IC50 in assay [1] was 8.9 µM; in assay [2], 11.6 µM; in assay [3], 14.7 µM; in assay [4], 8.4 µM.
In the same order, the values of `C[C@H]1O[C@@H]2C[C@@H](O)[C@@]1(O)C1=C2C(=O)C(C(N)=O)=C(N)C1=O` are 1.2 µM, 0.7 µM, 0.9 µM and 1.4 µM.
Take `C[C@H]1O[C@@H]2C[C@@H](O)[C@@]1(O)c1c2c(O)c(C(N)=O)c2ncoc12`: the IC50 was 12.4 µM in assay [1], 6.8 µM in assay [2], 5.7 µM in assay [3] and 7.2 µM in assay [4].
In the same order, the values of `C[C@H]1O[C@@H]2C[C@@H](O)[C@@]1(O)c1c2c(O)c(C(N)=O)c2nc([C@@H](O)CO)oc12` are 8.9 µM, 5.6 µM, 4.8 µM and 6.4 µM.
For the compound `COc1cccc2c1C(=O)c1c(O)c3c(c(O)c1C2=O)C[C@@](O)(C(=O)CO)C[C@@H]3O[C@H]1C[C@H](N)[C@H](O)[C@H](C)O1` [DOXORUBICIN], the IC50 in assay [1] turned out to be 0.13 µM; in assay [2], 0.08 µM; in assay [3], 0.09 µM.
